According to patent US10981926B2 (Janssen Pharmaceutica NV, priority 2016, dated 2021):

Experiments:
rGABA-gated Cl− channel = test: GABA-Gated Cl Channel Antagonist Radioligand Binding Assay; set-up: species or system rat; conditions: 10 μM single point, [35S]-TBPS, cerebral cortex membrane homogenates
Summary of the method: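 Values give percent inhibition of control specific […] (3 nM) binding at a single 10 μM compound concentration. Cerebral cortex membranes, 120 min, 22° C, phosphate buffer pH 7.4 with 500 mM NaCl; 20 μM picrotoxinin sets nonspecific binding; filtration and scintillation read-out.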

[1] = target: T1, F876L mutant Androgen Receptor (AR-F876L) (Homo sapiens (Human), UniProt P10275, F877L); test: LNCaP-AR-F876L ANT reporter assay (antagonist mode); format: cell-based; conditions: for IC50: antagonist mode, pIC50 = −Log10(IC50 in Molar), read-out: LNCaP-AR-F876L ANT pIC50 (converted); for Emax: maximum % inhibition of R1881 control response over the tested concentration range, read-out: LNCaP-AR-F876L ANT MAX % Inh
[2] = target: T2, wild-type Androgen Receptor (AR-wt) (Homo sapiens (Human), UniProt P10275); test: LNCaP-AR-wt AG reporter assay (agonist mode); format: cell-based; conditions: for EC50: agonist mode, pEC50 = −Log10(EC50 in Molar), read-out: LNCaP-AR-wt AG pEC50 (converted); for Emax: maximum % stimulation (agonist response) over the tested concentration range, read-out: LNCaP-AR-wt AG MAX % Stim
[3] = target: T1, F876L mutant Androgen Receptor (AR-F876L); test: LNCaP-AR-F876L AG reporter assay (agonist mode); format: cell-based; conditions: for EC50: agonist mode, pEC50 = −Log10(EC50 in Molar), read-out: LNCaP-AR-F876L AG pEC50 (converted); for Emax: maximum % stimulation (agonist response) over the tested concentration range, read-out: LNCaP-AR-F876L AG MAX % Stim
[4] = target: T2, wild-type Androgen Receptor (AR-wt); test: LNCaP-AR-wt ANT reporter assay (antagonist mode); format: cell-based; conditions: for IC50: antagonist mode, pIC50 = −Log10(IC50 in Molar), read-out: LNCaP-AR-wt ANT pIC50 (converted); for Emax: maximum % inhibition of R1881 control response over the tested concentration range, read-out: LNCaP-AR-wt ANT MAX % Inh

T2 sequence (P10275 whole entry): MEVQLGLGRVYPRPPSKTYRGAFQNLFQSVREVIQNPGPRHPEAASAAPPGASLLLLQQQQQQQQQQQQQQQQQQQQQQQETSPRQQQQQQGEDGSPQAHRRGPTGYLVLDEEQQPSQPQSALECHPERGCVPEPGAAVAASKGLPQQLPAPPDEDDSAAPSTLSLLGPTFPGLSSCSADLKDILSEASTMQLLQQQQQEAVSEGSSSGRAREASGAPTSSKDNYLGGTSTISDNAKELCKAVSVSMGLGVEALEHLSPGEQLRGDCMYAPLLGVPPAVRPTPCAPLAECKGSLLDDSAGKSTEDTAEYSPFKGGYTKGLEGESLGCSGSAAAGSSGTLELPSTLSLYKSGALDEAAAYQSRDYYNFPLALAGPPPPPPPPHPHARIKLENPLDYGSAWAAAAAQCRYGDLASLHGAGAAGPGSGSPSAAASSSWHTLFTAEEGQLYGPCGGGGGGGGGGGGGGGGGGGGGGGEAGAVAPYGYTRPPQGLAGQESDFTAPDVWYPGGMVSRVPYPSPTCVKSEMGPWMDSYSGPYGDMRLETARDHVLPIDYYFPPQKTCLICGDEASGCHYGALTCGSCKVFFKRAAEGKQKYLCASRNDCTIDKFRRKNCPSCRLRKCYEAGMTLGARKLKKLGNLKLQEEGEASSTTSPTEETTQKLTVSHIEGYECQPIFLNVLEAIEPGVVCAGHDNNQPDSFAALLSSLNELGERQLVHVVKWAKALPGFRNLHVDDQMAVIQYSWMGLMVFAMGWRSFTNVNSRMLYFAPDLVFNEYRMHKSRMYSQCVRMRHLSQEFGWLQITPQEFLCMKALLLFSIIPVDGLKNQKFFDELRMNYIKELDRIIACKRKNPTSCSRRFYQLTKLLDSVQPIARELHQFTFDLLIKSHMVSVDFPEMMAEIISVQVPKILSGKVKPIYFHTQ
T1 sequence (P10275 whole entry F877L): as the sequence (P10275 whole entry) above, with F877L counted along it

| SMILES | rGABA-gated Cl− channel % inh @10 μM (rGABA-gated Cl− channel) [%] | IC50 [1] [nM] | Emax [1] [%] | EC50 [2] [nM] | Emax [2] [%] | EC50 [3] [nM] | Emax [3] [%] | IC50 [4] [nM] | Emax [4] [%] |
| --- | --- | --- | --- | --- | --- | --- | --- | --- | --- |
| COCCN1CCC(Oc2ccc(N3C(=S)N(c4cnc(C#N)c(Cl)c4)C(=O)C34CCC4)cn2)CC1 [Cpd 70, 3-chloro-5-[8-[6-[[1-(2-methoxyethyl)-4-piperidyl]oxy]-3-pyridyl]-5-oxo-7-thioxo-6,8-diazaspiro[3.4]octan-6-yl]pyridine-2-carbonitrile] | 9.2 | 38.9 | 97.1 | > 15100 | 0.8 | > 15100 | 3.6 | 33.9 | 98.8 |
| CC(=O)N1CC(F)(F)CC1COc1ccc(N2C(=S)N(c3cnc(C#N)c(C(F)(F)F)c3)C(=O)C23CCC3)cc1 (stereo not drawn) [Cpd 71, 5-[8-[4-[(1-acetyl-4,4-difluoro-pyrrolidin-2-yl)methoxy]phenyl]-5-oxo-7-thioxo-6,8-diazaspiro[3.4]octan-6-yl]-3-(trifluoromethyl)pyridine-2-carbonitrile] | 82.1 | 178 | 98.3 | > 15100 | 0.2 | > 15100 | 0.5 | 102 | 101 |
| CN1CCC(CNC(=O)c2ccc(N3C(=S)N(c4cnc(C#N)c(C(F)(F)F)c4)C(=O)C34CCC4)cc2)CC1 [Cpd 72, 4-[6-[6-cyano-5-(trifluoromethyl)-3-pyridyl]-5-oxo-7-thioxo-6,8-diazaspiro[3.4]octan-8-yl]-N-[(1-methyl-4-piperidyl)methyl]benzamide] | 20.0 | 174 | 100 | > 15100 | -0.1 | > 15100 | 0 | 275 | 101 |
| CNC(=O)N1CCC(CNC(=O)c2ccc(N3C(=S)N(c4cnc(C#N)c(C(F)(F)F)c4)C(=O)C34CCC4)cc2)CC1 [Cpd 73, 4-[[[4-[6-[6-cyano-5-(trifluoromethyl)-3-pyridyl]-5-oxo-7-thioxo-6,8-diazaspiro[3.4]octan-8-yl]benzoyl]amino]methyl]-N-methyl-piperidine-1-carboxamide] | 80.1 | 224 | 97.6 | > 15100 | 1 | > 15100 | 0.5 | 501 | 101 |
| N#Cc1ncc(N2C(=O)C3(CCC3)N(c3ccc(OCC4CNCCO4)cc3)C2=S)cc1C(F)(F)F (stereo not drawn) [Cpd 74, 5-[8-[4-(morpholin-2-ylmethoxy)phenyl]-5-oxo-7-thioxo-6,8-diazaspiro[3.4]octan-6-yl]-3-(trifluoromethyl)pyridine-2-carbonitrile] | 13.9 | 21.4 | 98.1 | > 15100 | 0.2 | > 15100 | 1.5 | 72.4 | 100 |
| COc1cc(N2C(=O)C3(CCC3)N(c3ccc(OC4CCNCC4)nc3)C2=S)cnc1C#N [Cpd 75, 3-methoxy-5-[5-oxo-8-[6-(4-piperidyloxy)-3-pyridyl]-7-thioxo-6,8-diazaspiro[3.4]octan-6-yl]pyridine-2-carbonitrile] | −32.5 | 89.1 | 101 | > 15100 | 0.2 | > 15100 | 0.1 | 148 | 102 |
| N#Cc1ncc(N2C(=O)C3(CCC3)N(c3ccc(N4CCN(C(=O)N5CCCC5)CC4)cc3)C2=S)cc1C(F)(F)F [Cpd 76, 5-(8-oxo-5-(4-(4-(pyrrolidine-1-carbonyl)piperazin-1-yl)phenyl)-6-thioxo-5,7-diazaspiro[3.4]octan-7-yl)-3-(trifluoromethyl)picolinonitrile] | 85.4 | 141 | 97.5 | > 15100 | 0.6 | > 15100 | 2.2 | 93.3 | 102 |
